Reference: ChEMBL document CHEMBL1201862, “PubChem BioAssay data set” (2004)
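Values below derive from 48-hour exposures of cells grown in 96-well plates, with endpoints linearly interpolated between the two concentrations bracketing the appropriate inhibition level. Here, GI50 denotes the concentration required for 50% inhibition of growth.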 The source made the active and inactive calls. Rule as the data show it: active = GI50 up to about 1.1 µM and inactive = higher.

How the values were obtained:
Test in all cases: DTP human tumour cell line panel, 48 h
NCI-H522 = test system: NCI-H522
Malme-3M = test system: Malme-3M
RPMI-8226 = test system: RPMI-8226
HCC 2998 = test system: HCC 2998
UO-31 = test system: UO-31
IGROV-1 = test system: IGROV-1
SNB-19 = test system: SNB-19
U-251 = test system: U-251
CCRF-CEM = test system: CCRF-CEM
UACC-257 = test system: UACC-257
UACC-62 = test system: UACC-62
HT-29 = test system: HT-29
HL-60 = test system: HL-60
NCI/ADR-RES = test system: NCI/ADR-RES
MDA-N = test system: MDA-N
MDA-MB-231 = test system: MDA-MB-231
MCF7 = test system: MCF7
Hs-578T = test system: Hs-578T
MDA-MB-435 = test system: MDA-MB-435

| SMILES | GI50 (NCI-H522) | GI50 (Malme-3M) | GI50 (RPMI-8226) | GI50 (HCC 2998) | GI50 (UO-31) | GI50 (IGROV-1) | GI50 (SNB-19) | GI50 (U-251) | GI50 (CCRF-CEM) | GI50 (UACC-257) | GI50 (UACC-62) | GI50 (HT-29) | GI50 (HL-60) | GI50 (NCI/ADR-RES) | GI50 (MDA-N) | GI50 (MDA-MB-231) | GI50 (MCF7) | GI50 (Hs-578T) | GI50 (MDA-MB-435) |
| --- | --- | --- | --- | --- | --- | --- | --- | --- | --- | --- | --- | --- | --- | --- | --- | --- | --- | --- | --- |
| COc1ccc(-c2cn3ccsc3n2)cc1 | 65.3 µM (inactive) | > 100 µM (inactive) | 22.3 µM (inactive) | > 100 µM (inactive) | > 100 µM (inactive) | > 100 µM (inactive) | > 100 µM (inactive) | 75.2 µM (inactive) | 64 µM (inactive) | > 100 µM (inactive) | > 100 µM (inactive) | 82.8 µM (inactive) | 24.7 µM (inactive) |  |  |  |  |  |  |
| O=C(CC(=O)Nc1ccccc1O)Nc1ccccc1O | 7.48 µM (inactive) | 22.8 µM (inactive) | 5.13 µM (inactive) | 24.7 µM (inactive) | 12.1 µM (inactive) | 37.4 µM (inactive) | > 100 µM (inactive) | 23.9 µM (inactive) | 3.96 µM (inactive) | 15.5 µM (inactive) | 3.24 µM (inactive) | 27.9 µM (inactive) | 1.83 µM (inactive) |  |  |  |  |  |  |
| CC(=O)c1ccc(NC(=O)/C(Cc2ccccn2)=N/NC(=O)C[N+](C)(C)C)cc1 | > 100 µM (inactive) | > 100 µM (inactive) | > 100 µM (inactive) | > 100 µM (inactive) | > 100 µM (inactive) | > 100 µM (inactive) | > 100 µM (inactive) | > 100 µM (inactive) | > 100 µM (inactive) | > 100 µM (inactive) | > 100 µM (inactive) | > 100 µM (inactive) | > 100 µM (inactive) |  |  |  |  |  |  |
| FC(F)(F)P1C2C=CC(CC2)C1(F)F (centres undefined) | > 100 µM (inactive) | > 100 µM (inactive) | > 100 µM (inactive) | > 100 µM (inactive) | > 100 µM (inactive) | > 100 µM (inactive) | > 100 µM (inactive) | > 100 µM (inactive) | > 100 µM (inactive) | > 100 µM (inactive) | > 100 µM (inactive) | > 100 µM (inactive) | > 100 µM (inactive) |  |  |  |  |  |  |
| COc1cc(C(=O)OCCn2[nH]c(-c3ccc(Cl)cc3)nc2=S)cc(OC)c1OC | 27.7 µM (inactive) | 45.5 µM (inactive) |  | 56.4 µM (inactive) | 1.3 µM (inactive) |  | > 100 µM (inactive) | 83.8 µM (inactive) | 33 µM (inactive) | 44.1 µM (inactive) | > 100 µM (inactive) | > 100 µM (inactive) | 38.9 µM (inactive) | 57 µM (inactive) | 49 µM (inactive) | > 100 µM (inactive) | > 100 µM (inactive) | 47.8 µM (inactive) | 51.1 µM (inactive) |
| CCCCOCN/C(N)=N/C#N | > 100 µM (inactive) | > 100 µM (inactive) | > 100 µM (inactive) | > 100 µM (inactive) | > 100 µM (inactive) | > 100 µM (inactive) | > 100 µM (inactive) | > 100 µM (inactive) |  | > 100 µM (inactive) | > 100 µM (inactive) | > 100 µM (inactive) | > 100 µM (inactive) |  |  |  |  |  |  |
| NC(=O)C#CC#CC#CCO | 0.15 µM (active) | 1.96 µM (inactive) | 2.05 µM (inactive) | 1.7 µM (inactive) | 1.95 µM (inactive) | 2.72 µM (inactive) | 14.9 µM (inactive) | 2 µM (inactive) | 0.843 µM (active) | 2.33 µM (inactive) | 1.92 µM (inactive) | 2.39 µM (inactive) | 1.26 µM (inactive) |  |  |  |  |  |  |
| CC(C)OP(=O)(OC(C)C)/C(N)=N/Nc1ccc([N+](=O)[O-])cc1 | 68.7 µM (inactive) | > 100 µM (inactive) | > 100 µM (inactive) | > 100 µM (inactive) | 61.8 µM (inactive) |  | 77.4 µM (inactive) | > 100 µM (inactive) | 98.2 µM (inactive) | 25.1 µM (inactive) | 83 µM (inactive) |  | 58.3 µM (inactive) |  |  |  |  |  |  |
| CN(C)/C=N\c1nc(=O)n(C2CCC(CO)O2)cc1F (centres undefined) | > 100 µM (inactive) | > 100 µM (inactive) | > 100 µM (inactive) | 96.6 µM (inactive) | > 100 µM (inactive) |  | > 100 µM (inactive) | > 100 µM (inactive) | > 100 µM (inactive) | > 100 µM (inactive) |  | > 100 µM (inactive) | > 100 µM (inactive) |  |  |  |  |  |  |
| CNc1ccc([N+](=O)[O-])c2c(NCCCN(C)C)ccnc12 | > 100 µM (inactive) | > 100 µM (inactive) | > 100 µM (inactive) | > 100 µM (inactive) | > 100 µM (inactive) | > 100 µM (inactive) | > 100 µM (inactive) | > 100 µM (inactive) | > 100 µM (inactive) | > 100 µM (inactive) |  | > 100 µM (inactive) | > 100 µM (inactive) |  |  |  |  |  |  |
| COC(=O)C(C(=O)C(=O)Nc1ccc([N+](=O)[O-])cc1)c1nc2cc(C)c(C)cc2nc1O (centres undefined) | > 100 µM (inactive) | > 100 µM (inactive) | > 100 µM (inactive) | 81.3 µM (inactive) | > 100 µM (inactive) | > 100 µM (inactive) | > 100 µM (inactive) | > 100 µM (inactive) | > 100 µM (inactive) | > 100 µM (inactive) | > 100 µM (inactive) | > 100 µM (inactive) | > 100 µM (inactive) |  |  |  |  |  |  |
| COc1cccc(-c2nc(-c3cnccn3)n(C/C=C/c3ccccc3)n2)c1 | > 10 µM (inactive) | > 10 µM (inactive) |  | > 10 µM (inactive) | > 10 µM (inactive) | > 10 µM (inactive) | > 10 µM (inactive) | > 10 µM (inactive) | > 10 µM (inactive) | > 10 µM (inactive) | > 10 µM (inactive) | > 10 µM (inactive) |  | > 10 µM (inactive) | > 10 µM (inactive) |  | > 10 µM (inactive) | > 10 µM (inactive) | > 10 µM (inactive) |
| Cc1nn(C)c(=O)c2nn(-c3ccccc3)c(C)c12 | > 100 µM (inactive) | > 100 µM (inactive) | > 100 µM (inactive) | > 100 µM (inactive) | > 100 µM (inactive) | > 100 µM (inactive) | > 100 µM (inactive) | > 100 µM (inactive) | > 100 µM (inactive) | > 100 µM (inactive) | > 100 µM (inactive) | > 100 µM (inactive) | > 100 µM (inactive) |  |  |  |  |  |  |
| O=[N+]([O-])c1cccc(C(O)/C(=N/Nc2ccccc2)C2Nc3ccc([N+](=O)[O-])cc3N=C2O)c1 (centres undefined) | 19.7 µM (inactive) | 95.9 µM (inactive) | 43 µM (inactive) | 33.4 µM (inactive) | 27.5 µM (inactive) | 38.7 µM (inactive) | > 100 µM (inactive) | 88.1 µM (inactive) | 81.8 µM (inactive) | > 100 µM (inactive) | 17.4 µM (inactive) | 50.9 µM (inactive) | 10.8 µM (inactive) |  |  |  |  |  |  |
| O=C(c1ccccc1)c1ccc2cccc(O)c2n1 | 8.38 µM (inactive) | 36.1 µM (inactive) | 10.6 µM (inactive) | 40.1 µM (inactive) | 34.4 µM (inactive) | 93.1 µM (inactive) | 31.1 µM (inactive) | 18.5 µM (inactive) | 1.19 µM (inactive) |  | 33.1 µM (inactive) |  |  |  |  |  |  |  |  |
| Nc1nc(Cl)c(CO)c(NCC2(CO)CC(CCc3ccccc3)C2)n1 (centres undefined) | 15.7 µM (inactive) | 14.2 µM (inactive) | 3.5 µM (inactive) | 33.3 µM (inactive) | 17.3 µM (inactive) | > 10 µM (inactive) | 61.5 µM (inactive) | 26.2 µM (inactive) | 16.5 µM (inactive) | 11.4 µM (inactive) |  | 22.2 µM (inactive) | 3.4 µM (inactive) | 11.5 µM (inactive) | > 100 µM (inactive) | 12.5 µM (inactive) | 14.3 µM (inactive) | > 10 µM (inactive) | 11.5 µM (inactive) |
| O=[N+]([O-])c1ccc(C2=Nc3ccccc3[S+]([O-])C(c3ccccc3)C2)cc1 (centres undefined) | 16.7 µM (inactive) | 44.8 µM (inactive) | 5.56 µM (inactive) | 18.6 µM (inactive) | 16.7 µM (inactive) | 15.3 µM (inactive) | 20 µM (inactive) |  | 15.1 µM (inactive) | 22.1 µM (inactive) | 13.6 µM (inactive) | 19.1 µM (inactive) | 16.9 µM (inactive) |  |  |  |  |  |  |
| [N-]=[N+]=NC1C2CC3C4CC5CC3[C@H](C2)C(C5)C41 (some centres undefined) | > 100 µM (inactive) | > 100 µM (inactive) | > 100 µM (inactive) | > 100 µM (inactive) | > 100 µM (inactive) | > 100 µM (inactive) | > 100 µM (inactive) | > 100 µM (inactive) | > 100 µM (inactive) | > 100 µM (inactive) | > 100 µM (inactive) | > 100 µM (inactive) |  |  |  |  |  |  |  |
| CC(=O)O[C@H]1C(=O)[C@@]2(C)[C@H]([C@H](OC(=O)c3ccccc3)[C@]3(O)C[C@H](OC(=O)[C@H](O)[C@@H](NC(=O)C(C)(C)C)c4ccccc4)C(C)=C1C3(C)C)[C@]1(OC(C)=O)CO[C@@H]1C[C@@H]2O | 0.0306 µM (active) | 0.165 µM (active) | 0.0305 µM (active) | 0.0702 µM (active) | 0.395 µM (active) | 0.0476 µM (active) | 2.35 µM (inactive) | 0.137 µM (active) | 0.0397 µM (active) | 0.127 µM (active) | 0.0485 µM (active) | 0.0414 µM (active) | 0.018 µM (active) | > 10 µM (inactive) | 0.022 µM (active) | 5.93 µM (inactive) | 0.031 µM (active) | 0.0485 µM (active) | 0.0158 µM (active) |
